In article PMC5358098 (ACS chemical neuroscience, 2016):
Like-named read-outs stand apart in the source and are kept apart here.

Legend:
[1] = target: T1, CB1R (Homo sapiens, UniProt P21554); experiment: [3H]SR141716A equilibrium binding, hCB1R CHO cell membranes
[2] = target: T1, CB1R; experiment: cell-based; type: cell-based
[3] = system: hCB1R; experiment: Operational model bias analysis, HEK293A cells; type: cell-based, human; details: HEK293A; for ΔΔlog R β-arrestin1/cAMP / ΔΔlog R β-arrestin1/pPLCβ3: reference 2-AG + GAT100
[4] = system: CB1R; type: cell-based; details: mean of data for the pathway (Table 3), all cells and orthosteric ligands
[5] = target: T2, CB1R (Mus musculus, UniProt P47746); type: cell-based; details: Neuro2a, 10 min
[6] = target: T2, CB1R; experiment: Operational model bias analysis, STHdh^Q7/Q7 cells; details: STHdh^Q7/Q7
[7] = target: T1, CB1R; type: cell-based; details: HEK293A, 10 min
[8] = system: CB1R; type: cell-based; details: mean of data for the pathway (Table 2), all cells and orthosteric ligands
[9] = target: T2, CB1R; type: cell-based; details: Neuro2a, 10 min; remark: listed apart in the source
[10] = target: T1, CB1R; type: cell-based; details: Neuro2a, 30 min
[11] = target: T1, CB1R; experiment: cell-based
[12] = system: CB1R; details: cited from earlier work
[13] = target: T2, CB1R; experiment: Operational model bias analysis, Neuro2a cells; type: cell-based; details: for ΔΔlog R β-arrestin1/pPLCβ3: reference 2-AG + GAT100
[14] = target: T1, CB1R; type: cell-based; details: HEK293A, 30 min
[15] = system: CB1R
[16] = target: T2, CB1R; details: STHdh^Q7/Q7; 1 μM + 500 nM CP55,940
[17] = target: T1, CB1R; experiment: cell-based; type: cell-based; remark: listed apart in the source
[18] = 500 nM 2-AG + 1 nM-10 μM allosteric modulator
[19] = 500 nM AEA + 1 nM-10 μM allosteric modulator
[20] = 500 nM CP55,940 + 1 nM-10 μM allosteric modulator

T2 sequence (P47746 whole entry): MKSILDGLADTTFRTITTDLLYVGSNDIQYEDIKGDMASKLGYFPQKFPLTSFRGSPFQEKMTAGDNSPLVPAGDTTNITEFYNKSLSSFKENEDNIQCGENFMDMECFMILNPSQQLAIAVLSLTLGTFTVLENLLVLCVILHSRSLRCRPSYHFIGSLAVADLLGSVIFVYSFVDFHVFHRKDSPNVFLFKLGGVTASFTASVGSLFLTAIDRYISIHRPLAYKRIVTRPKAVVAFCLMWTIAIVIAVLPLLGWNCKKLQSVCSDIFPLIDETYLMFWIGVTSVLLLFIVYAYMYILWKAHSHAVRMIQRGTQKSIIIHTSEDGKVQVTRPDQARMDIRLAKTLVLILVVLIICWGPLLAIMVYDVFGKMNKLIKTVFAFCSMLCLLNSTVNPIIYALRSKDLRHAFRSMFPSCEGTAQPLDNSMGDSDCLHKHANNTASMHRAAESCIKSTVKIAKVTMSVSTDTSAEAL
T1 sequence (P21554 whole entry): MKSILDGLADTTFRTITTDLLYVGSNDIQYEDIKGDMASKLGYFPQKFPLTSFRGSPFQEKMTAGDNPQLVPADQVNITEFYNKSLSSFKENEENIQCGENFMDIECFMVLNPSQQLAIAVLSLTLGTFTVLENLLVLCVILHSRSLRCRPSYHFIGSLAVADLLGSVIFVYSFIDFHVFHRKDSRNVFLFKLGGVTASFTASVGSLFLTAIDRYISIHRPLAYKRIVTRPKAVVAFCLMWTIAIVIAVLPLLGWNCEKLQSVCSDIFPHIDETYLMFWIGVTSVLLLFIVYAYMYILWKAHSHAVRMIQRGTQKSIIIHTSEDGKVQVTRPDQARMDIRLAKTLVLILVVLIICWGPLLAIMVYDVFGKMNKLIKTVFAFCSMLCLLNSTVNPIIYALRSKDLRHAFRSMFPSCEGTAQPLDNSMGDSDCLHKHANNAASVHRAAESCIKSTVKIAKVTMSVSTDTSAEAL

CCc1c(C(=O)NCCc2ccc(N3CCCCC3)cc2)[nH]c2ccc(Cl)cc12 [Org27569, 5-chloro-3-ethyl-N-(4-(piperidin-1-yl)phenethyl)-1H-indole-2-carboxamide]
EC50 [1]: 2520 nM
Emax ([1]; read-out: Emax, [3H]SR141716A binding): -17.6%
Emax, cAMP (pathway ligand bias summary) [2]: 0.31 ± 0.04 ^†
effect on cAMP levels in the absence of orthosteric agonists (inverse agonism) ([2]; HEK-CRE, 10 μM forskolin + 1 nM to 10 μM compound alone, 4 h): increased cAMP levels significantly
IC50 ([2]; IC50, cAMP, CP55,940): 969 nM
Emax ([2]; read-out: Emax (% cAMP inhibition), CP55,940): 25.7 ± 1.64%
BF β-arrestin1/cAMP [3, 18]: 0.2
BF β-arrestin1/pERK1/2 [3, 18]: 0.1
BF β-arrestin1/pPLCβ3 [3, 18]: 0.1
ΔΔlog R β-arrestin1/cAMP [3, 18]: –0.6 ± 0.8
ΔΔlog R β-arrestin1/pPLCβ3 [3, 18]: –1.0 ± 0.9
BF β-arrestin1/cAMP [3, 19]: 0.1
BF β-arrestin1/pERK1/2 [3, 19]: 15.8
BF β-arrestin1/pPLCβ3 [3, 19]: 0.03
ΔΔlog R β-arrestin1/cAMP [3, 19]: –1.2 ± 0.6
ΔΔlog R β-arrestin1/pPLCβ3 [3, 19]: –1.6 ± 0.6
BF β-arrestin1/cAMP [3, 20]: 1.0
BF β-arrestin1/pERK1/2 [3, 20]: 4.0
BF β-arrestin1/pPLCβ3 [3, 20]: 0.5
ΔΔlog R β-arrestin1/cAMP [3, 20]: 0.0 ± 0.6
ΔΔlog R β-arrestin1/pPLCβ3 [3, 20]: –0.3 ± 0.1
Emax, ERK (pathway ligand bias summary) [4]: 0.45 ± 0.01
Emax pERK1/2/Total ERK1/2, 2-AG ([5]; 1 nM-10 μM 2-AG + 1 μM NAM): 0.48 ± 0.03
Emax pERK1/2/Total ERK1/2, AEA ([5]; 1 nM-10 μM AEA + 1 μM NAM): 0.44 ± 0.02
Emax pERK1/2/Total ERK1/2, CP55,940 ([5]; 1 nM-10 μM CP55,940 + 1 μM NAM): 0.43 ± 0.02
BF β-arrestin1/pERK1/2 [6, 18]: 0.5
BF β-arrestin1/pPLCβ3 [6, 18]: 0.3
BF β-arrestin1/pERK1/2 [6, 19]: 1.3
BF β-arrestin1/pPLCβ3 [6, 19]: 0.2
BF β-arrestin1/pERK1/2 [6, 20]: 0.3
BF β-arrestin1/pPLCβ3 [6, 20]: 0.8
Emax pERK1/2/Total ERK1/2, 2-AG ([7]; 1 nM-10 μM 2-AG + 1 μM NAM): 0.46 ± 0.02
Emax pERK1/2/Total ERK1/2, AEA ([7]; 1 nM-10 μM AEA + 1 μM NAM): 0.42 ± 0.02
Emax pERK1/2/Total ERK1/2, CP55,940 ([7]; 1 nM-10 μM CP55,940 + 1 μM NAM): 0.40 ± 0.01
Emax, PLCβ3 (pathway ligand bias summary) [8]: 0.55 ± 0.01
Emax pPLCβ3/Total PLCβ3, 2-AG ([9]; 1 nM-10 μM 2-AG + 1 μM NAM): 0.53 ± 0.02
Emax pPLCβ3/Total PLCβ3, AEA ([9]; 1 nM-10 μM AEA + 1 μM NAM): 0.52 ± 0.02 ^††
Emax pPLCβ3/Total PLCβ3, CP55,940 ([9]; 1 nM-10 μM CP55,940 + 1 μM NAM): 0.58 ± 0.02 ^††
Emax (BRETEff), 2-AG ([10]; 1 nM-10 μM 2-AG + 1 μM NAM): 0.47 ± 0.03
Emax (BRETEff), AEA ([10]; 1 nM-10 μM AEA + 1 μM NAM): 0.44 ± 0.02
Emax (BRETEff), CP55,940 ([10]; 1 nM-10 μM CP55,940 + 1 μM NAM): 0.60 ± 0.05
IC50 [11]: 236 nM
Emax, β-arrestin1 (pathway ligand bias summary) ([11]; mean of data for the pathway (Table 1), all cells and orthosteric ligands): 0.50 ± 0.02
effect on CP55,940 equilibrium binding by CB1R [12]: increase CP55,940 equilibrium binding
BF β-arrestin1/pERK1/2 [13, 18]: 3.2
BF β-arrestin1/pPLCβ3 [13, 18]: 0.6
ΔΔlog R β-arrestin1/pPLCβ3 [13, 18]: –0.2 ± 0.2
BF β-arrestin1/pERK1/2 [13, 19]: 1.6
BF β-arrestin1/pPLCβ3 [13, 19]: 4.0
ΔΔlog R β-arrestin1/pPLCβ3 [13, 19]: 0.6 ± 0.2
BF β-arrestin1/pERK1/2 [13, 20]: 3.2
BF β-arrestin1/pPLCβ3 [13, 20]: 4.0
ΔΔlog R β-arrestin1/pPLCβ3 [13, 20]: 0.6 ± 0.4
Emax (BRETEff), 2-AG ([14]; 1 nM-10 μM 2-AG + 1 μM NAM): 0.49 ± 0.03
Emax (BRETEff), AEA ([14]; 1 nM-10 μM AEA + 1 μM NAM): 0.49 ± 0.02
Emax (BRETEff), CP55,940 ([14]; 1 nM-10 μM CP55,940 + 1 μM NAM): 0.58 ± 0.03
Emax, 2-AG (probe dependence summary) ([15]; mean of data for 2-AG (Tables 1-4)): 0.49 ± 0.02
Emax, AEA (probe dependence summary) ([15]; mean of data for AEA (Tables 1-4)): 0.45 ± 0.03
Emax, CP55,940 (probe dependence summary) ([15]; mean of data for CP55,940 (Tables 1-4)): 0.50 ± 0.04
Emax, HEK293A (cell dependence summary) ([15]; mean of data for HEK293A (Tables 1-3)): 0.49 ± 0.02
Emax, Neuro2a (cell dependence summary) ([15]; mean of data for Neuro2a (Tables 1-3)): 0.50 ± 0.02
Emax, STHdh^Q7/Q7 (cell dependence summary) ([15]; mean of data for STHdh^Q7/Q7 (Tables 1-3)): 0.51 ± 0.02
effect on CP55,940-induced CB1R internalization (fraction of CB1R at the plasma membrane) [16]: reversed this effect
Emax pPLCβ3/Total PLCβ3, 2-AG ([17]; HEK293A, 1 nM-10 μM 2-AG + 1 μM NAM, 10 min): 0.52 ± 0.02
Emax pPLCβ3/Total PLCβ3, AEA ([17]; HEK293A, 1 nM-10 μM AEA + 1 μM NAM, 10 min): 0.49 ± 0.02
Emax pPLCβ3/Total PLCβ3, CP55,940 ([17]; HEK293A, 1 nM-10 μM CP55,940 + 1 μM NAM, 10 min): 0.60 ± 0.03
IC50 ([17]; IC50, PLCβ3 phosphorylation, CP55,940): 151 nM
